Test system: 429239-143-T-J1-PDC complex spheroid viability
Assay: Anticancer human tumor 429239-143-T-J1-PDC patient-derived small cell lung carcinoma cell line growth inhibition [POLQ]
Details: for IC50: curve of first compound; for viability, T/C: stronger effect = lower value; active = viability on the fitted dose curve at most 10% of control; inactive = the rest
Experimental: Multicellular complex tumor spheroid response to Polymerase (POL) inhibitors (novobiocin, ART-558, RP6685) in combination with a variety of drugs and investigational agents in selected tumor cell lines
The POL inhibitors (novobiocin, ART-558, and RP6685) were evaluated both individually and in combination with standard of care and investigational anticancer small molecules within a complex spheroid model of solid tumors. . Complex spheroids include a stromal component modeled by human endothelial cells (HUVEC) and fibroblasts modeled by human mesenchymal stem cells (MSCs). The concentration ranges selected for each drug and investigational agent were based upon clinically achievable concentrations if the clinical Cmax of the agent was known.
Compounds. The drugs and investigational agents: novobiocin (NSC847541), ART-558 (NSC835418), RP-6685 (NSC848927), peposertib (NSC802822), ceralasertib (NSC780249), elimusertib (NSC800525), camonsertib (NSC841442), AZD-1390 (NSC803789), olaparib (NSC753686), talazoparib (NSC767125), rucaparib (NSC756644), sotorasib (NSC818433), MRTX-1133 (NSC836407), SN-38 (NSC673596), topotecan (NSC609699), epotoside (NSC141540), doxorubicin (NSC123127), gemcitabine (NSC613327), 5-fluorouracil (NSC19893), paclitaxel (NSC125973), vemurafenib (NSC761431), MSA-2 (NSC828583), SN-011 (NSC837082), adavosertib (NSC754352), prexasertib (NSC758257), carboplatin (NSC241240) and oxaliplatin (NSC266046), were obtained from the National Cancer Institute (NCI) Developmental Therapeutics Program Chemical Repository (21). The FDA-approved anticancer drug set is available from the Developmental Therapeutics Program at https://dtp.cancer.gov/organization/dscb/obtaining/. […] The stock solutions were prepared in dimethyl sulfoxide (DMSO, Sigma-Aldrich, St. Louis, MO, cat. D2650), except for the platinum compounds which were prepared in saline (Quality Biological, Gaithersburg, MD, cat. 114-055-101), at 800-fold the tested concentration and stored at -70 degrees C prior to their use. All drugs and investigational agents were tested over a range starting from a high concentration at or near the clinical Cmax and decreasing in half-log increments. If the clinical Cmax for an agent had not been determined, the highest concentration tested was 10 microM, except for SN-38, which was tested at a high concentration of 1 microM.
Cell Culture. All cells were maintained in an incubator at 37 degrees C and 5% CO2 with 95% humidity. The PDC lines were cultured according to standard operating procedures established by the NCI PDMR (https://pdmr.cancer.gov). Table 3 of the manuscript, lists the cell lines along with the number of the three cell types plated to form the mct-spheroids and media for tumor cell growth. After thawing, all PDC lines, except 997537-175-T-J1-PDC and 415267-285-R-J2-PDC, were cultured in Matrigel-coated flasks prepared with a working solution of 1X Ham's F-12 nutrient mix, without supplementation (Thermo Fisher Scientific, cat. 11765054), 100 U/mL penicillin-streptomycin (Thermo Fisher Scientific, cat. 15140122), and 2.5% Matrigel (Corning Inc., Corning, NY, cat. 354248) for the first three passages. The two PDC lines 997537-175-T-J1-PDC and 415267-285-R-J2-PDC were cultured on uncoated flasks. The 857933-349-R-J2-PDC line was cultured in 6C/Colon 1B media containing advanced DMEM/F-12 (Thermo Fisher Scientific, cat. 12634028), 10 mM HEPES (Thermo Fisher Scientific, cat. 15630080), 1X GlutaMAX supplement (Thermo Fisher Scientific, cat. 35050061), 0.1 mg/mL primocin (InvivoGen, San Diego, CA, cat. ant-pm-2), 10% defined fetal bovine serum, heat inactivated (HyClone Laboratories Inc., Logan, UT, cat. SH30070.03HI), 50% L-WRN conditioned media (ATCC, cat. CRL-3276), 1.25 mM N-Acetyl-L-cysteine (Sigma-Aldrich, cat. A9165), 10 mM nicotinamide (Sigma-Aldrich, cat. N0636), 1X B-27 supplement (Thermo Fisher Scientific, cat. 17504044), 1X N-2 supplement (Thermo Fisher Scientific, cat. […]

[1] = second compound 0.0316 µM, first compound 0.0316 µM
[2] = second compound 0.0316 µM, first compound 0.1 µM
[3] = second compound 0.0316 µM, first compound 0.316 µM
[4] = second compound 0.0316 µM, first compound 1 µM
[5] = second compound 0.0316 µM, first compound 3.16 µM
[6] = second compound 0.0316 µM, first compound 10 µM
[7] = second compound 0.1 µM, first compound 0.0316 µM
[8] = second compound 0.1 µM, first compound 0.1 µM
[9] = second compound 0.1 µM, first compound 0.316 µM
[10] = second compound 0.1 µM, first compound 1 µM
[11] = second compound 0.1 µM, first compound 3.16 µM
[12] = second compound 0.1 µM, first compound 10 µM
[13] = second compound 0.316 µM, first compound 0.0316 µM
[14] = second compound 0.316 µM, first compound 0.1 µM
[15] = second compound 0.316 µM, first compound 0.316 µM
[16] = second compound 0.316 µM, first compound 1 µM
[17] = second compound 0.316 µM, first compound 3.16 µM
[18] = second compound 0.316 µM, first compound 10 µM
[19] = second compound 1 µM, first compound 0.0316 µM
[20] = second compound 1 µM, first compound 0.1 µM
[21] = second compound 1 µM, first compound 0.316 µM
[22] = second compound 1 µM, first compound 1 µM
[23] = second compound 1 µM, first compound 3.16 µM
[24] = second compound 1 µM, first compound 10 µM
[25] = second compound 3.16 µM, first compound 0.0316 µM
[26] = second compound 3.16 µM, first compound 0.1 µM
[27] = second compound 3.16 µM, first compound 0.316 µM
[28] = second compound 3.16 µM, first compound 1 µM
[29] = second compound 3.16 µM, first compound 3.16 µM
[30] = second compound 3.16 µM, first compound 10 µM
[31] = second compound 10 µM, first compound 0.0316 µM
[32] = second compound 10 µM, first compound 0.1 µM
[33] = second compound 10 µM, first compound 0.316 µM
[34] = second compound 10 µM, first compound 1 µM
[35] = second compound 10 µM, first compound 3.16 µM
[36] = second compound 10 µM, first compound 10 µM
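Note: luminescence signal used as surrogate measure of viable cells; spheroids exposed to compounds for seven days before readout.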
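Throughout, for viability, T/C: 100% = DMSO vehicle control viability as luminescence relative to vehicle.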

CCCS(=O)(=O)Nc1ccc(F)c(C(=O)c2c[nH]c3ncc(-c4ccc(Cl)cc4)cc23)c1F + Cc1cccc(N(C)C(=O)C2C(O)CCN2c2nc(C)cc(C(F)(F)F)c2C#N)c1
> 10 µM: IC50 (second compound 0.0316 µM) | IC50 (second compound 0.1 µM) | IC50 (second compound 0.316 µM) | IC50 (second compound 1 µM) | IC50 (second compound 3.16 µM) | IC50 (second compound 10 µM)
inactive: viability, T/C [1] 91.3% | viability, T/C [2] 106% | viability, T/C [3] 88.6% | viability, T/C [4] 93.4% | viability, T/C [5] 94% | viability, T/C [6] 81.7% | viability, T/C [7] 92.2% | viability, T/C [8] 89.9% | viability, T/C [9] 89.4% | viability, T/C [10] 97.2% | viability, T/C [11] 93.6% | viability, T/C [12] 82.8% | viability, T/C [13] 99.5% | viability, T/C [14] 92.8% | viability, T/C [15] 96.9% | viability, T/C [16] 94.1% | viability, T/C [17] 87.5% | viability, T/C [18] 79% | viability, T/C [19] 103% | viability, T/C [20] 87.7% | viability, T/C [21] 92.3% | viability, T/C [22] 91% | viability, T/C [23] 90.3% | viability, T/C [24] 77.5% | viability, T/C [25] 98.8% | viability, T/C [26] 96.9% | viability, T/C [27] 97.4% | viability, T/C [28] 94.2% | viability, T/C [29] 105% | viability, T/C [30] 79.5% | viability, T/C [31] 100% | viability, T/C [32] 105% | viability, T/C [33] 85.2% | viability, T/C [34] 93.5% | viability, T/C [35] 98.8% | viability, T/C [36] 81.9%

CCCS(=O)(=O)Nc1ccc(F)c(C(=O)c2c[nH]c3ncc(-c4ccc(Cl)cc4)cc23)c1F + COC1C(OC(N)=O)C(O)C(Oc2ccc3c(O)c(NC(=O)c4ccc(O)c(CC=C(C)C)c4)c(=O)oc3c2C)OC1(C)C
8.99 µM: IC50 (second compound 1 µM)
9.77 µM: IC50 (second compound 0.316 µM)
inactive: viability, T/C [1] 105% | viability, T/C [2] 90.4% | viability, T/C [3] 101% | viability, T/C [4] 102% | viability, T/C [5] 98.6% | viability, T/C [6] 50.5% | viability, T/C [7] 95.7% | viability, T/C [8] 97.4% | viability, T/C [9] 110% | viability, T/C [10] 102% | viability, T/C [11] 92.4% | viability, T/C [12] 52.5% | viability, T/C [13] 98.8% | viability, T/C [14] 96.3% | viability, T/C [15] 106% | viability, T/C [16] 87.6% | viability, T/C [17] 109% | viability, T/C [18] 48.9% | viability, T/C [19] 104% | viability, T/C [20] 100% | viability, T/C [21] 94.5% | viability, T/C [22] 98.8% | viability, T/C [23] 86.2% | viability, T/C [24] 46% | viability, T/C [25] 109% | viability, T/C [26] 96.3% | viability, T/C [27] 106% | viability, T/C [28] 83.1% | viability, T/C [29] 98.5% | viability, T/C [30] 53.1% | viability, T/C [31] 92.8% | viability, T/C [32] 101% | viability, T/C [33] 104% | viability, T/C [34] 84.7% | viability, T/C [35] 119% | viability, T/C [36] 44.1%
> 10 µM: IC50 (second compound 0.0316 µM) | IC50 (second compound 0.1 µM) | IC50 (second compound 3.16 µM)
8.86 µM: IC50 (second compound 10 µM)

Source: PubChem BioAssay AID1963845 (Molecular Pharmacology Branch, DTP, NCI, 2024)
